Experimental findings from patent publication US20230055961A1, “PENTAFLUOROBENZENESULFONAMIDE DERIVATIVES AND USES THEREOF” (Dunad Therapeutics Ltd., priority 2019, published 2023) are described below.

One assay deals with RL cells. Description: IC50 of Ibrutinib analogs against human cancer cells, RL cells (Table 14). It is filed as cell-based. Particulars: for IC50: Homo sapiens, RL, read-out: RL (IC50).
For another assay, the target named is FGFR4 (Homo sapiens, UniProt P22455). Description: In vitro kinase inhibition studies (Table 9), FGFR4. It is filed as biochemical.
For the next assay, the target named is T1, BMX (Homo sapiens, UniProt P51813).
T1 sequence (P51813 1-675): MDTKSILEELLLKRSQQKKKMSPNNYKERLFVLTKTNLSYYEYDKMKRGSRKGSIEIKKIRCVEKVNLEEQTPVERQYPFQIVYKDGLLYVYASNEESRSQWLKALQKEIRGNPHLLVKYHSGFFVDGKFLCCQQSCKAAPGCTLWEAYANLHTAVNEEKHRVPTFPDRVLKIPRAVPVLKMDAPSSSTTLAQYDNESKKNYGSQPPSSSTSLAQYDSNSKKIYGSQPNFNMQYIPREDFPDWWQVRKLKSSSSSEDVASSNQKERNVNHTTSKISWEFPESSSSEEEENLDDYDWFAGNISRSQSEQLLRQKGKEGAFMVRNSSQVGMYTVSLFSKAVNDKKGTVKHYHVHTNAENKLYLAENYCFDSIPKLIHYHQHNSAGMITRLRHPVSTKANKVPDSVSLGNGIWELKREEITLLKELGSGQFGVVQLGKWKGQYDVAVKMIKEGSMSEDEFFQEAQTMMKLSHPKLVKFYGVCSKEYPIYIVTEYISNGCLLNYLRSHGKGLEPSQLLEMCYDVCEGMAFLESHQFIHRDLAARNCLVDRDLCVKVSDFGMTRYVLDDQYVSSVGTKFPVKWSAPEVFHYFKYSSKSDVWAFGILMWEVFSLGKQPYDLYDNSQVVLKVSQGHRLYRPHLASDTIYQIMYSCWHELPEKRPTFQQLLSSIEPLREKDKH
As to the kind of experiment: In vitro kinase inhibition studies (Table 13), BMX. It is filed as biochemical.

The target in another assay is T2, JAK3 (Homo sapiens, UniProt P52333).
T2 sequence (P52333 1-1124): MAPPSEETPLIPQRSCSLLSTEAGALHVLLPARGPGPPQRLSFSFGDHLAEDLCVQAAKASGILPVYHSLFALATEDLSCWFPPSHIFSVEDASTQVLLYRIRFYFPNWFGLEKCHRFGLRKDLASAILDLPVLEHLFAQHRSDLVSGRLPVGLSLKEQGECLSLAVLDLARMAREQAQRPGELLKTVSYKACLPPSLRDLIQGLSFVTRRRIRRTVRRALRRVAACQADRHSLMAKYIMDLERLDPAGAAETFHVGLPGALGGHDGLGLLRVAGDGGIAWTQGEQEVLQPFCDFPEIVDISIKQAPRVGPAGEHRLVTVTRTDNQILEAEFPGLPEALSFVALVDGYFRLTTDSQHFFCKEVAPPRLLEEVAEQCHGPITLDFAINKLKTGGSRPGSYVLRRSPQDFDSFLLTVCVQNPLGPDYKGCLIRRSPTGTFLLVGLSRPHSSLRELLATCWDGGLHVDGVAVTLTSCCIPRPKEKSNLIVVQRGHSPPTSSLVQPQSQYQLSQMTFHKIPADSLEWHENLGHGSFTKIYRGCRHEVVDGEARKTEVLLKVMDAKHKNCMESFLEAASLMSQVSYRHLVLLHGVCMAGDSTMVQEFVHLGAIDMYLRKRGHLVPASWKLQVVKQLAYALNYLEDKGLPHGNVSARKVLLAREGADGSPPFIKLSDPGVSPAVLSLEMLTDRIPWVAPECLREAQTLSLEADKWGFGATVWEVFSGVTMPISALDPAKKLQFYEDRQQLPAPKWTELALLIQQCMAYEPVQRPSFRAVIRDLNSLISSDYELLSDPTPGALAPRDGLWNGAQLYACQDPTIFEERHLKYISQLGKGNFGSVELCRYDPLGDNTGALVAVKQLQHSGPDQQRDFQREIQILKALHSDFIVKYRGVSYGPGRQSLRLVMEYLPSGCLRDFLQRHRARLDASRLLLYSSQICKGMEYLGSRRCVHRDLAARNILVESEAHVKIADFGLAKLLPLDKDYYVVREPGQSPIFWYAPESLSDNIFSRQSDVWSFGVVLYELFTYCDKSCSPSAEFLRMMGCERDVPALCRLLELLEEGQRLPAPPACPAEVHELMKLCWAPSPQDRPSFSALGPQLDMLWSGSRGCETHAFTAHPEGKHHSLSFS
Description: In vitro kinase inhibition studies (Table 13), JAK3. It counts as biochemical.

For another assay, the target named is CSK (Homo sapiens, UniProt P41240). Description: In vitro kinase inhibition studies (Table 13), CSK. It is filed as biochemical.
The next assay concerns the target EGFR L850R, T790M (Homo sapiens, UniProt P00533, T790M, form not given). Description: In vitro kinase inhibition studies (Table 13), EGFR L850R, T790M. It is filed as biochemical.
A further assay addresses ERBB2 (Homo sapiens, UniProt P04626). As to the kind of experiment: In vitro kinase inhibition studies (Table 13), ERBB2. It is filed as biochemical.
For a further assay, the target named is BTK (Homo sapiens, UniProt Q06187). Description: Covalent modification of BTK by mass spectrometry of the intact protein. The arrangement: His-tagged BTK kinase domain was prepared from pET-28b(+)-BTK (402-655) vector. Particulars: 10 μM BTK, 50 μM compound, 2 hours at 30° C.; expected 596 Da. It counts as binding. Here is the method: After incubation of 10 μM BTK in the presence of 50 μM Compound 5-1 for 2 hours at 30° C., the mass of the modified protein was determined by mass spectrometry. […] After incubation with Compound 5-1, the intensity of this had decreased by an order of magnitude, and the most intense peak is consistent with the protein whose mass was increased by 595 Da, corresponding closely to the expected mass of the inhibitor Compound 5-1 (less one fluoride from inhibitor, and one proton from protein, 596 Da).

The structures appear in SMILES notation. Read-outs that look alike come from different tables or passages of the source.

Sequence of EGFR L850R, T790M (P00533 whole entry T790M/L858R, form open): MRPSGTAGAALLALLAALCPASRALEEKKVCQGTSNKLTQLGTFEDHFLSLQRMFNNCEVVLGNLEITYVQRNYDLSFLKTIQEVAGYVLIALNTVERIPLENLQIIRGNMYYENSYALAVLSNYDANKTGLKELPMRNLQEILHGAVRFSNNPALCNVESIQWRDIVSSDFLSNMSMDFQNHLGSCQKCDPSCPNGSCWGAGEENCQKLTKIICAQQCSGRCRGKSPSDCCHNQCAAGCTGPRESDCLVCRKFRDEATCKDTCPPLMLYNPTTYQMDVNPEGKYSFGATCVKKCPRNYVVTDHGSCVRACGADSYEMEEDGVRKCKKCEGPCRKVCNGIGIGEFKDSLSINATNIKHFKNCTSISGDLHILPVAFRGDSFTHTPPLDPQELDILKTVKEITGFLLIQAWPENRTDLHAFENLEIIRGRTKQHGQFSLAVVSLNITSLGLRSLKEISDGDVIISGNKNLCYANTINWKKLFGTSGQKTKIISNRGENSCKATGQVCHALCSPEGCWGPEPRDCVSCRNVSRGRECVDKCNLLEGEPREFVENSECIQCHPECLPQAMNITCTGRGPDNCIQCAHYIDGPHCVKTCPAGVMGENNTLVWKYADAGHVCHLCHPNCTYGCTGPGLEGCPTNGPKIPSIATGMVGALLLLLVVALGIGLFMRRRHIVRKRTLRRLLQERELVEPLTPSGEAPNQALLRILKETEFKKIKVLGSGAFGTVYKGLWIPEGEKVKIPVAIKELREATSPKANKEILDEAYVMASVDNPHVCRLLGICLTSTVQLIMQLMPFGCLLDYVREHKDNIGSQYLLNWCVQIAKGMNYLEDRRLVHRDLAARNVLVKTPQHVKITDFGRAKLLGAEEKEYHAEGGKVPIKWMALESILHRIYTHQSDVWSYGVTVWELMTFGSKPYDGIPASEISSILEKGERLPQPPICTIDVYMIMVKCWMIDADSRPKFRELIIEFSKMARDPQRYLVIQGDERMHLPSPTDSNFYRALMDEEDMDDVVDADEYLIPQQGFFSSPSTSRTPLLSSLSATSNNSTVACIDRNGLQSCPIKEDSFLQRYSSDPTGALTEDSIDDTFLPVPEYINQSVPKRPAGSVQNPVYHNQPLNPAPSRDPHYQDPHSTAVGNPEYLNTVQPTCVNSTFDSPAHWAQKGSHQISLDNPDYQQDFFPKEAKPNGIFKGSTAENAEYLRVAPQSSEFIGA
Sequence of CSK (P41240 whole entry, species assumed): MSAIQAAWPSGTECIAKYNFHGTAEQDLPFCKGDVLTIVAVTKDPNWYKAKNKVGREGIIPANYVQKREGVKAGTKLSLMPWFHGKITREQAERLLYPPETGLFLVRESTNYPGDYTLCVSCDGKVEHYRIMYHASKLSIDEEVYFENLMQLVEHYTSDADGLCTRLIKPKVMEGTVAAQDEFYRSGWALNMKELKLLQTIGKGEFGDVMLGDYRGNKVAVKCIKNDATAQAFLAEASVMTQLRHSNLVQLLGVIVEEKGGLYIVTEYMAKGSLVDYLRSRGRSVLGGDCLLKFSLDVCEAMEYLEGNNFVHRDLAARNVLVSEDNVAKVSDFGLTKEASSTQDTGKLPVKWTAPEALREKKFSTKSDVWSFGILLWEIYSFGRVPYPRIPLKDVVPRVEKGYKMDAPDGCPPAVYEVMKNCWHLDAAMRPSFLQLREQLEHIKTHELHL
Sequence of BTK (Q06187 402-655 limits assumed, species assumed): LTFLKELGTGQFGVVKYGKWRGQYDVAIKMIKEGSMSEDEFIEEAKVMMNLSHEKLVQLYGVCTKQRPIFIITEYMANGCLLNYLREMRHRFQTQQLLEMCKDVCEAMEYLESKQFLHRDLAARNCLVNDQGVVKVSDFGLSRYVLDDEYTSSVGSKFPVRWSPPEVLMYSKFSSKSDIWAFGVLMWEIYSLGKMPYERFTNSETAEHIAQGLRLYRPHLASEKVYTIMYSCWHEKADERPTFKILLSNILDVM
Sequence of ERBB2 (P04626 23-1255, species assumed): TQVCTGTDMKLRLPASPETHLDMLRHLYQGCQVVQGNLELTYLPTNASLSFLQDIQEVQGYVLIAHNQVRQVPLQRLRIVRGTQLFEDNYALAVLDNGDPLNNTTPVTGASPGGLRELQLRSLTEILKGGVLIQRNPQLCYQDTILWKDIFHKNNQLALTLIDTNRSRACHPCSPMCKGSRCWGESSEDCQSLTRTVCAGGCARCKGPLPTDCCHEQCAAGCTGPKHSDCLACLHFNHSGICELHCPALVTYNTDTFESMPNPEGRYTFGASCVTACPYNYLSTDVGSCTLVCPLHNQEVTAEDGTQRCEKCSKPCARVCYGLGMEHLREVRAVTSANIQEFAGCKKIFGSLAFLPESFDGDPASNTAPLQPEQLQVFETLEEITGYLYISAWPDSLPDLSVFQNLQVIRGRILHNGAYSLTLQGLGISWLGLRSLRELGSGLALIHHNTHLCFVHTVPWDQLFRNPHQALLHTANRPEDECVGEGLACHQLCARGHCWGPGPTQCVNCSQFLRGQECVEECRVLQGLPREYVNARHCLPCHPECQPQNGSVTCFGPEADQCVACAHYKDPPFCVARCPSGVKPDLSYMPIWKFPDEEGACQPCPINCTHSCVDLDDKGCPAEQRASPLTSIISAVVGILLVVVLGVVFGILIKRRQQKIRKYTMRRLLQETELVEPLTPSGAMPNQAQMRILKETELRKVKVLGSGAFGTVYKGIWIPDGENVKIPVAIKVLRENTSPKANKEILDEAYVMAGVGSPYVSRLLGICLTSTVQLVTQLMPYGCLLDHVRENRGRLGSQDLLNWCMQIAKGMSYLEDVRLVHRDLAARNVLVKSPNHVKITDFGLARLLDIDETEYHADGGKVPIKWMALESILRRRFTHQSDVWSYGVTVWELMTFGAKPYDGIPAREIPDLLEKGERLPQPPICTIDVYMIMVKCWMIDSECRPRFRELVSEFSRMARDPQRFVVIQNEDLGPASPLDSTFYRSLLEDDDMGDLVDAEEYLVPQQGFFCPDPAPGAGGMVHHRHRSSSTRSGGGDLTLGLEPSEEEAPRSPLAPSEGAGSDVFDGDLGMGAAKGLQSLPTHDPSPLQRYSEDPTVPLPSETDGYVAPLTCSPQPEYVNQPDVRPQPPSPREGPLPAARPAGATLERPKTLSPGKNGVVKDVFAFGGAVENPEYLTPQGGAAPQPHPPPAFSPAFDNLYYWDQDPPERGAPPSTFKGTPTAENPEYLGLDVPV
Sequence of FGFR4 (P22455 22-802, species assumed): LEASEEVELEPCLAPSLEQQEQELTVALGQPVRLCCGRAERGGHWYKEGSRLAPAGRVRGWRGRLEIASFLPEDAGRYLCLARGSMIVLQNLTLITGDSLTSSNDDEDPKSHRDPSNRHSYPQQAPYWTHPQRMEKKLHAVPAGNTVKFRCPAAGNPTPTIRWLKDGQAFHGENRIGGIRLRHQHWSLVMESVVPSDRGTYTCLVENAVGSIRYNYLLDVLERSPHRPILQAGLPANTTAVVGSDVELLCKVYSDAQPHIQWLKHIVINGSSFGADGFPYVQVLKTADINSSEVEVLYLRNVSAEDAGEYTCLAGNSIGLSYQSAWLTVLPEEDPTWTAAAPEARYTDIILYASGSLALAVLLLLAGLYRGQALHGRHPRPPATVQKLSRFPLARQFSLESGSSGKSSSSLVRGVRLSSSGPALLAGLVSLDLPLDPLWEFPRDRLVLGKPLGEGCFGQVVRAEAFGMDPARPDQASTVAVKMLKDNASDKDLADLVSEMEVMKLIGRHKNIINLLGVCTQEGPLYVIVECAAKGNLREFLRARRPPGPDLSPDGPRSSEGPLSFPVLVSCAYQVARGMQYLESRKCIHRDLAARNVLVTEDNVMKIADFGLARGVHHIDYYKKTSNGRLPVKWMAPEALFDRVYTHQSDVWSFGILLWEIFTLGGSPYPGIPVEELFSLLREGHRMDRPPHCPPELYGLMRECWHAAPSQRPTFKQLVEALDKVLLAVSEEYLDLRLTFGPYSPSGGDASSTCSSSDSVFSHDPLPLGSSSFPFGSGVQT
Description for RL cells: 1×10^4 cells (NHF cells)/well are plated in 96-well assay plates in culture medium. […] After 24 hrs, test compounds and vehicle controls are added to appropriate wells so the final volume is 100p in each well. The cells are cultured for the desired test exposure period (72 hrs) at 37° C. and 5% CO2. The assay plates are removed from 37° C. incubator and 20 μl/well of CellTiter-Blue® Reagent is added. The plates are incubated using standard cell culture conditions for 1-4 hours and the plates are shaken for 10 seconds and record fluorescence at 560/590 nm. […] Therapeutic index=(IC50 human fibroblasts/IC50 […] )

On to `Nc1ncnc2c1c(-c1ccc(Oc3ccccc3)cc1)nn2[C@@H]1CCCN(S(=O)(=O)c2c(F)c(F)c(F)c(F)c2F)C1` [Compound 5-1, (R)-1-(1-((perfluorophenyl)sulfonyl)piperidin-3-yl)-3-(4-phenoxyphenyl)-1H-pyrazolo[3,4-d]pyrimidin-4-amine], for which the half-maximal inhibitory concentration (IC50) in the assay with RL cells (TABLE 9) was 1610 nM; in the assay with RL cells (Table 14, RL human non-Hodgkin's lymphoma B cell line), 2740 nM; on FGFR4, 10 to 300 nM; against BMX, 0.1 to 10 nM; against JAK3, 100 to 1000 nM; against CSK, 100 to 1000 nM. Moreover, the concentration for half-maximal inhibition (IC50) against EGFR L850R, T790M was in the range of 100 to 1000 nM; against ERBB2, 100 to 1000 nM. In addition, in the assay with RL cells (RL cells), the “cell-based efficacy compared with Ibrutinib” value is “better cell-based efficacy”. Besides, the “mass increase of BTK protein after incubation with compound” value on BTK was 595 Da.
